The source made the active and inactive calls. The rule behind the calls is not given here.
Assays:
[1] = test system: CFU-GM; assay: Inhibition of colony formation in human CFU-GM cells assessed as reduction in colony number and size at 1 uM incubated for 14 days by crystal violet staining based analysis; type: toxicity, cell-based; details: 336 h, time 14 day
[2] = Inhibition of colony formation in human BFU-E cells assessed as reduction in colony number and size at 1 uM incubated for 14 days by crystal violet staining based analysis; type: toxicity, cell-based; details: 336 h, time 14 day
[3] = test system: EU-1; assay: Inhibition of MDM2/XIAP IRES mRNA interaction in human EU-1 cells assessed as increase in p53 protein expression at 1 uM measured after 2 to 24 hrs by western blot analysis; type: cell-based; details: time 2-24 hrs
[4] = test system: EU-1; assay: Inhibition of MDM2/XIAP IRES mRNA interaction in human EU-1 cells assessed as increase in p53 protein expression measured after 24 hrs by western blot analysis; type: cell-based; details: dose 0.25-2 µM, DDE = dose-dependent effect
[5] = Antiproliferative activity against human EU-1 cells assessed as inhibition of cell growth incubated for 48 hrs by WST assay; type: functional, cell-based; details: EU-1, 48 h
[6] = Antiproliferative activity against human EU-3 cells assessed as reduction in cell survival incubated for 48 hrs by WST assay; type: functional, cell-based; details: EU-3, 48 h
[7] = Antiproliferative activity against human NB-1643 cells assessed as reduction in cell survival incubated for 48 hrs by WST assay; type: functional, cell-based; details: NB-1643, 48 h
[8] = Antiproliferative activity against human SH-EP1 cells assessed as reduction in cell survival incubated for 48 hrs by WST assay; type: functional, cell-based; details: SH-EP1, 48 h
[9] = Antiproliferative activity against human LA1-55n cells assessed as reduction in cell survival incubated for 48 hrs by WST assay; type: functional, cell-based
[10] = test system: NB-1643; assay: Inhibition of colony formation in human NB-1643 cells assessed as reduction in colony number and size at 0.25 to 4 uM incubated for 2 weeks by crystal violet staining based analysis; type: functional, cell-based; details: dose 0.25-4 µM
[11] = test system: SH-EP1; assay: Inhibition of colony formation in human SH-EP1 cells assessed as reduction in colony number and size at 0.25 to 4 uM incubated for 2 weeks by crystal violet staining based analysis; type: functional, cell-based; details: dose 0.25-4 µM
[12] = test system: LA1-55n; assay: Inhibition of colony formation in human LA1-55n cells assessed as reduction in colony number and size at 0.25 to 4 uM incubated for 2 weeks by crystal violet staining based analysis; type: functional, cell-based; details: dose 0.25-4 µM
[13] = test system: EU-1; assay: Inhibition of MDM2/XIAP IRES mRNA interaction in human EU-1 cells assessed as induction of MDM2 degradation by measuring downregulation of MDM2 protein expression incubated for 24 hrs by western blot analysis; type: cell-based; details: dose 0.25-2 µM, DDE = dose-dependent effect
[14] = test system: EU-1; assay: Inhibition of MDM2/XIAP IRES mRNA interaction in human EU-1 cells assessed as induction of MDM2 degradation by measuring downregulation of MDM2 protein expression at 1 uM measured after 2 to 24 hrs by western blot analysis; type: cell-based; details: time 2-24 hrs
[15] = test system: EU-1; assay: Inhibition of MDM2/XIAP IRES mRNA interaction in human EU-1 cells assessed as downregulation of XIAP protein expression incubated for 24 hrs by western blot analysis; type: cell-based; details: dose 0.25-2 µM, DDE = dose-dependent effect
[16] = test system: EU-1; assay: Inhibition of MDM2/XIAP IRES mRNA interaction in human EU-1 cells assessed as downregulation of XIAP protein expression at 1 uM measured after 2 to 24 hrs by western blot analysis; type: cell-based; details: time 2-24 hrs
[17] = test system: EU-1; assay: Inhibition of MDM2/XIAP IRES mRNA interaction in human EU-1 cells assessed as induction of MDM2 degradation by measuring downregulation of MDM2 protein expression at 1 uM measured after 8 hrs by western blot analysis; type: cell-based
[18] = test system: EU-1; assay: Inhibition of MDM2/XIAP IRES mRNA interaction in human EU-1 cells assessed as induction of MDM2 degradation by measuring fold change in MDM2 protein expression at 1 uM measured after 30 mins by CHX chase assay (reference value: 0.92); type: cell-based
[19] = test system: EU-1; assay: Inhibition of MDM2/XIAP IRES mRNA interaction in human EU-1 cells assessed as induction of MDM2 degradation by measuring fold change in MDM2 protein expression at 1 uM measured after 60 mins by CHX chase assay (reference value: 0.85); type: cell-based
[20] = test system: EU-1; assay: Inhibition of MDM2/XIAP IRES mRNA interaction in human EU-1 cells assessed as induction of MDM2 degradation by measuring fold change in MDM2 protein expression at 1 uM measured after 90 mins by CHX chase assay (reference value: 0.76); type: cell-based
[21] = test system: EU-1; assay: Inhibition of MDM2/XIAP IRES mRNA interaction in human EU-1 cells assessed as induction of MDM2 degradation by measuring fold change in MDM2 protein expression at 1 uM measured after 120 mins by CHX chase assay (reference value: 0.69); type: cell-based
[22] = test system: EU-1; assay: Inhibition of MDM2/XIAP IRES mRNA interaction in human EU-1 cells assessed as fold change in p53 protein expression at 1 uM measured after 30 mins by CHX chase assay (reference value: 0.38); type: cell-based
[23] = test system: EU-1; assay: Inhibition of MDM2/XIAP IRES mRNA interaction in human EU-1 cells assessed as fold change in p53 protein expression at 1 uM measured after 60 mins by CHX chase assay (reference value: 0.19); type: cell-based
[24] = test system: EU-1; assay: Inhibition of MDM2/XIAP IRES mRNA interaction in human EU-1 cells assessed as fold change in p53 protein expression at 1 uM measured after 90 mins by CHX chase assay (reference value: 0.13); type: cell-based
[25] = test system: EU-1; assay: Inhibition of MDM2/XIAP IRES mRNA interaction in human EU-1 cells assessed as fold change in p53 protein expression at 1 uM measured after 120 mins by CHX chase assay (reference value: 0.08); type: cell-based
[26] = test system: EU-1; assay: Inhibition of MDM2/XIAP IRES mRNA interaction in human EU-1 cells assessed as induction of MDM2 self-ubiquitination at 1 uM measured for 90 mins by immunoprecipitation-western blot analysis; type: cell-based
[27] = test system: EU-1; assay: Inhibition of MDM2/XIAP IRES mRNA interaction in human EU-1 cells assessed as increase in p53 protein expression at 1 uM measured after 8 hrs by western blot analysis; type: cell-based
[28] = test system: EU-1; assay: Inhibition of MDM2/XIAP IRES mRNA interaction in human EU-1 cells assessed as increase in p21 protein expression at 1 uM measured after 8 hrs by western blot analysis; type: cell-based
[29] = test system: EU-1; assay: Inhibition of MDM2/XIAP IRES mRNA interaction in human EU-1 cells assessed as increase in PUMA protein expression at 1 uM measured after 8 hrs by western blot analysis; type: cell-based
[30] = test system: EU-1; assay: (§1) Inhibition of MDM2/XIAP IRES mRNA interaction in human EU-1 cells assessed as inhibition of XIAP mRNA translation by measuring reduction in state of polyribosome association of XIAP mRNA in cytoplasmic lysate at 1 uM measured after 4 hrs by linear sucrose gradient fractionation based qRT-PCR analysis; type: subcellular; details: Cytoplasm
[31] = test system: EU-1; assay: as §1, with “increase” for “reduction in state of polyribosome association of XIAP mRNA”, “fraction containing translation-inactive complexes, mono ribosomes” for “lysate”; type: subcellular; details: Cytoplasm
[32] = test system: EU-1; assay: Inhibition of MDM2/XIAP IRES mRNA interaction in human EU-1 cells assessed as increase in caspase-3 cleavage at 1 uM measured after 8 hrs by western blot analysis; type: cell-based
[33] = test system: EU-1; assay: Inhibition of MDM2/XIAP IRES mRNA interaction in human EU-1 cells assessed as increase in caspase-9 cleavage at 1 uM measured after 8 hrs by western blot analysis; type: cell-based
[34] = test system: EU-1; assay: Inhibition of MDM2/XIAP IRES mRNA interaction in human EU-1 cells assessed as increase in PARP cleavage at 1 uM measured after 8 hrs by western blot analysis; type: cell-based
[35] = Cmax in Sprague-Dawley rat at 10 mg/kg, iv measured for 24 hrs by LC-MS/MS analysis; type: ADME, organism-based; set-up: dose 10 mg/kg, time 24 hrs, route iv; details: in vivo
[36] = AUC in Sprague-Dawley rat at 10 mg/kg, iv measured for 24 hrs by LC-MS/MS analysis; type: ADME, organism-based; set-up: dose 10 mg/kg, time 24 hrs, route iv; details: in vivo
[37] = Clearance in Sprague-Dawley rat at 10 mg/kg, iv measured for 24 hrs by LC-MS/MS analysis; type: ADME, organism-based; details: in vivo
[38] = Volume of distribution in Sprague-Dawley rat at 10 mg/kg, iv measured for 24 hrs by LC-MS/MS analysis; type: ADME, organism-based; details: in vivo
[39] = Elimination half life in Sprague-Dawley rat at 10 mg/kg, iv measured for 24 hrs by LC-MS/MS analysis; type: ADME, organism-based; details: in vivo
[40] = AUC in Sprague-Dawley rat at 25 mg/kg, po measured for 24 hrs by LC-MS/MS analysis; type: ADME, organism-based; set-up: time 24 hrs, dose 25 mg/kg, route po; details: in vivo
[41] = Oral bioavailability in Sprague-Dawley rat at 25 mg/kg measured for 24 hrs by LC-MS/MS analysis; type: ADME, organism-based; details: in vivo
[42] = test system: EU-1; details: Homo sapiens, dose 1.0 µM, time 4.0 hrs
[43] = test system: EU-1; details: Homo sapiens, dose 1.0 µM, time 4.0 hrs; remark: listed apart in the source

With `Cc1ccc(NS(=O)(=O)c2ccc3c(c2)C2OCCC2C(c2ccc(C(=O)C(C)C)cc2)N3)cc1C` (stereo not drawn) the Activity [1] was “Non-Toxic”, the Activity [2] was “Non-Toxic” and the inhibition [3] was “Active”. For the same compound, the inhibition [4] was “Dde”, the IC50 [5] was 300 nM and the IC50 [6] was 300 nM. For the same compound, the IC50 [7] was 500 nM, the IC50 [8] was 500 nM and the IC50 [9] was 500 nM. For the same compound, the inhibition [10] was “Active”, the inhibition [11] was “Active” and the inhibition [12] was “Active”. For the same compound, the inhibition [13] was “Dde”, the inhibition [14] was “Active” and the inhibition [15] was “Dde”. The inhibition [16] was “Active”, the inhibition [17] was “Active” and the fold change (FC) [18] was 0.78. It also gave a fold change (FC) [19] of 0.47, a fold change (FC) [20] of 0.25 and a fold change (FC) [21] of 0.13. For the same compound, the fold change (FC) [22] was 1.06, the fold change (FC) [23] was 1.09 and the fold change (FC) [24] was 1.15. The fold change (FC) [25] was 1.14, the inhibition [26] was “Active” and the inhibition [27] was “Active”. The inhibition [28] was “Active”, the inhibition [29] was “Active” and the inhibition [30] was “Active”. The inhibition [31] was “Active”, the inhibition [32] was “Active” and the inhibition [33] was “Active”. The inhibition [34] was “Active”, the Cmax [35] was 8200 ng/mL and the AUC [36] was 4750 ng·h/mL. For the same compound, the CL [37] was 35.3 mL/min/kg, the Vd [38] was 2.88 L/kg and the “beta t1/2” value [39] was 0.94 h. It also gave an AUC [40] of 710 ng·h/mL, an F [41] of 5.9% and a T1/2 [42] of under 1 h. It also gave a T1/2 [43] of over 2 h.
